Laboratory results taken from US10221420B2, “Aptamer construct” (priority 2014, dated 2019).

Legend:
HT29 cells [1] = test: Tumoursphere formation assay (CSC frequency analysis in vitro); type: cell-based, human; conditions: HT29, 96-well, lower seeding dose (10 or 5 cells/well), versus PBS control
Protocol: Cells were harvested at 80% confluence with trypsin digestion and resuspended as single cells in DMEM/F12 serum-free media following centrifugation (1000×g for 5 min). Cells were plated into 96-well ultralow attachment plates at a density of 5, 10, 50, 100, 500, and 1000 cells per well, or at 4000 cells /well in 6-well ultralow attachment plates for tumoursphere formation. Three experiment groups were used: tumoursphere medium control, free DOX treatment (1, 1.5 and 2 μM) and aptamer-Dox treatment (1, 1.5 and 2 μM equivalent to the same concentration of free DOX). After incubation for 24 h at 37° C. supernatant was removed and replaced with equal volume of fresh CSC medium. A tumoursphere was defined as a cell aggregate with a diameter of over 50 μm with well defined borders. Tumoursphere formation frequency and size were recorded 3 days after seeding. The frequency of CSCs was calculated using the ELDA website (http://bioinf.wehi.edu.au/software/elda/index.html. The tumoursphere formation frequency in 6-well incubation was calculated according to the formula F=Numbers of forming tumourspheres/Number of single cells plated (F is the tumoursphere formation frequency).

[2] = molecular target: T1, CD133 expressed on HT29 cells (Homo sapiens, UniProt O43490); test: Equilibrium dissociation constant by flow cytometry on CD133 positive HT29 cells; type: binding; conditions: Cy5 labelled
T1 construct: host or cells: HT-29 human colorectal cancer cells
T1 sequence (O43490 20-865): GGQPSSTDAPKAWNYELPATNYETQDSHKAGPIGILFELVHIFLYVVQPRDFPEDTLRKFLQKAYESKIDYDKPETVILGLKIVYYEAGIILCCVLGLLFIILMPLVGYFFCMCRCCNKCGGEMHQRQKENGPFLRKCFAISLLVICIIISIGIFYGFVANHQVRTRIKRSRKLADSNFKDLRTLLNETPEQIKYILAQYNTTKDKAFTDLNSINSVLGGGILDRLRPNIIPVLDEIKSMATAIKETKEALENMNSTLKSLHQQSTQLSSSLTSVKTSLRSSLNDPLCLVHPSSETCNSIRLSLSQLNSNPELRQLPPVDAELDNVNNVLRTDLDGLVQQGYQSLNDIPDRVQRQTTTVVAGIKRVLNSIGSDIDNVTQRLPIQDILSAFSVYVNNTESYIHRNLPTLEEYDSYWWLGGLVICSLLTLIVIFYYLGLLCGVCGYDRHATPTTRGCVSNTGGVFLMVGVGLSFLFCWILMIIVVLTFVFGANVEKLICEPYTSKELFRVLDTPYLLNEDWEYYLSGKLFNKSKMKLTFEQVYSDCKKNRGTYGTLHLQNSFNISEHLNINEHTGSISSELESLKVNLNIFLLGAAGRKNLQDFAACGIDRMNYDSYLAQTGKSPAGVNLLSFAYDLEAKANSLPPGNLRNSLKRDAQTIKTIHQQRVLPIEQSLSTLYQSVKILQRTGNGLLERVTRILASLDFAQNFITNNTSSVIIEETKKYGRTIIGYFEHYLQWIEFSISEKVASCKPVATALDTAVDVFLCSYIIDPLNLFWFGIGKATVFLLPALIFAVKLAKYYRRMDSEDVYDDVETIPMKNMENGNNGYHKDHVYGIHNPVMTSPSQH
Protocol: (§1) To minimize the non-specific binding, 1×10^5 HT29 or HEK293T cells were first incubated with blocking buffer (PBS with 10% FCS, 1% BSA and 1% tRNA) for 20 min. Cells were then washed twice with washing buffer (PBS containing 5% FBS and 2.5 mM MgCl2) and incubated on ice for 1 h with either CD133 aptamer, negative-control aptamer, CD133 aptamer-Dox conjugate or negative-control aptamer-Dox conjugate, all labelled with Cy5 in conjugation buffer (50 mM NaCl, and 2.5 mM MgCl2).
Prior to flow cytometric analysis, cells were again washed twice with washing buffer and then suspended in 150 μl washing buffer. Data was then collected using the flow cytometer (FACS CANTOII, Becton Dickerson) to measure the fluorescence intensity of the aptamer and the binding affinity was determined by normalising the fluorescence intensity with the fluorescent background from that of the negative-control aptamer and then derived using Graph Pad Prism software.

HT29 cells [3] = test: Internalisation of aptamer-Dox conjugate by confocal microscopy; type: cell-based, human
Protocol: Both HT29 and HEK293T were seeded at […] cells per well in 8-chamber slide for 24 h in preparation for confocal microscopy. Cells were incubated with blocking buffer (PBS with 10% FCS, 1 mg/mL BSA, 0.1 mg/mL tRNA) for 20 min, followed by washing twice with washing buffer (PBS containing 5% FBS, 2.5 mM MgCl2, and 5 mM NaCl) prior to incubation with 200 nM aptamer, negative-control aptamer, aptamer-Dox conjugate or […] Bisbenzimide Hoechst 33342 (3 mg/ml) (Sigma)) was added to the cells during the final 15 min of incubation. The aptamer solution was removed and the cells were washed three times for 5 min each in PBS prior to visualisation using a FluoView FV10i laser scanning confocal microscope (Olympus).

CD133 (prominin-1) [4] = molecular target: T2, CD133 (prominin-1) (UniProt O43490 O43490:20-865); test: flow; HT29 cells, 50 mM NaCl, 2.5 mM MgCl2, on ice 1 h; CD133-negative HEK293T gave KD >1000 nM; conditions: tags: native CD133 on HT-29 colorectal cancer cells (ATCC); label: Cy5; hairpin with 10-bp DNA stem
T2 sequence: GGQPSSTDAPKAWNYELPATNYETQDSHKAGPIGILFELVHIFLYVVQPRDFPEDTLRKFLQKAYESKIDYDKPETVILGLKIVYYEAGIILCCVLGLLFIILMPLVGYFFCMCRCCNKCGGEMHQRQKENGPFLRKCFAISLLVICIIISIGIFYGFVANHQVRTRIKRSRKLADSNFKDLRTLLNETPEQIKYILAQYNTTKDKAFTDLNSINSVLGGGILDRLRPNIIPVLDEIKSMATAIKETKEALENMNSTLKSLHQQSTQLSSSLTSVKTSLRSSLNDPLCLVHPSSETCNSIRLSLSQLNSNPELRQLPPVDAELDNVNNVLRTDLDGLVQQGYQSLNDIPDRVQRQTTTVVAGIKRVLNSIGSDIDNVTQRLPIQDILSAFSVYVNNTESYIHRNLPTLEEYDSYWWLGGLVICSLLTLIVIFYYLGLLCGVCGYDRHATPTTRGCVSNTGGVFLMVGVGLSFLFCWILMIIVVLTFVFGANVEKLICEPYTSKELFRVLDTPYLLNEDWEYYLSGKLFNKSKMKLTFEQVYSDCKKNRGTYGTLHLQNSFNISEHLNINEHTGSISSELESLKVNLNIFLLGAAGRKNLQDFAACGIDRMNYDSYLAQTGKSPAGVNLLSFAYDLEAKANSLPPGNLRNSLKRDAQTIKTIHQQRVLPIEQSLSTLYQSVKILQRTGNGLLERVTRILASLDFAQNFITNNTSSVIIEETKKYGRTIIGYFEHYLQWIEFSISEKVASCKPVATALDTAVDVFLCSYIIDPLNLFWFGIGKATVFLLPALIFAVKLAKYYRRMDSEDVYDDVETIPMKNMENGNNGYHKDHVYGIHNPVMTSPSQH
Protocol: as §1, with “Determination of the Equilibrium Dissociation Between the Aptamer-Dox Conjugate and its Target Cells To” for “To”
(§2) To determine whether the conjugation of DOX impedes binding affinity and specificity of the aptamer to CD133 the fluorescently labelled Cy5 aptamer-Dox conjugate was incubated with HT29 colorectal cancer cells and the equilibrium dissociation constant (K_D) was determined via flow cytometric analysis (FIG. 6).
Two cell lines, HT29 and HEK293T, were chosen for the study. […] To ascertain that CD133 aptamer binds to CD133 via specific molecular interaction rather than a non-specific binding between a nucleic acid and CD133, the experiments were repeated with a negative control aptamer-Dox conjugate (FIG. 6B). This negative control aptamer has the identical nucleic acid sequence as the positive aptamer with the exception of a 2'-O-methyl modification instead of a 2'-fluoro chemical modification.

CD133 (prominin-1) [5] = molecular target: T2, CD133 (prominin-1); test: flow; HT29 cells, 50 mM NaCl, 2.5 mM MgCl2, on ice 1 h; conditions: tags: native CD133 on HT-29 colorectal cancer cells (ATCC); label: Cy5; hairpin with 10-bp DNA stem
Protocol: as §1, with “Determination of the Equilibrium Dissociation Between the Aptamer-Dox Conjugate and its Target Cells To” for “To”
as §2

## COc1cccc2c1C(=O)c1c(O)c3c(c(O)c1C2=O)C[C@@](O)(C(=O)CO)C[C@@H]3O[C@H]1C[C@H](N)[C@H](O)[C@H](C)O1 [free DOX, doxorubicin]
HT29 cells [1]
  frequency of tumoursphere formation: no significant decrease

## 5′-mCGmCGmCGmCmCGmCA(2′fC)G(2′-fU)A(2′fU)A(2′fC)(2′fU)A(2′fU)GmCGGmCGmCGmCG-(inv dT)-3′ (SEQ ID NO:5) (CGCGCGCCGCACGUAUACUAUGCGGCGCGCGT; 2'-F, 5-methyl-dC modifications; 3' inverted dT; a synthetic aptamer against CD133; modified_base (1)..(1) 5-methyl deoxycytidine; modified_base (3)..(3) 5-methyl deoxycytidine; modified_base (5)..(5) 5-methyl deoxycytidine; modified_base (7)..(8) 5-methyl deoxycytidine; modified_base (10)..(10) 5-methyl deoxycytidine; modified_base (12)..(12) 2′-fluoro 5-methyl deoxycytidine; modified_base (14)..(14) 2′-fluoro deoxyuridine; modified_base (16)..) [CD133 aptamer, hybrid RNA/DNA CD133 aptamer; RNA stem replaced with a 10-bp DNA stem containing 5′methyl-dC]
[2]
  Kd: 84.8 nM
HT29 cells [3]
  internalisation (Cy5 aptamer): successfully internalised

B1: CD133 aptamer-Dox conjugate (mixed)
RNA: CGCGCGCCGCACGUAUACUAUGCGGCGCGCG
modifications: DNA stem with 5-methyl-dC; 2'-F C and U in RNA loop; 3' inverted dT; doxorubicin intercalated in stem
CD133 (prominin-1) [4]
  Kd: 23.9 nM

B2: CD133 RNA/DNA hybrid aptamer, unconjugated (mixed)
RNA: CGCGCGCCGCACGUAUACUAUGCGGCGCGCG
modifications: DNA stem with 5-methyl-dC (all stem C except as printed); 2'-F C and U in RNA loop ACGUAUACUAU; 3' inverted dT
CD133 (prominin-1) [5]
  Kd: 84.8 nM
